In patent US20220340598A1, “PYRAZOLOPYRIDINONE COMPOUNDS” (Janssen Pharmaceutica NV, priority 2017, published 2022) one finds GI50 and IC50 data, which are given here for ten compounds.

Assay [1] addresses T1, NIH/3T3 cells overexpressing FGFR3 V555M-TACC3 fusion protein (Homo sapiens, UniProt P22607, V555M, cells depend on it).
T1 construct: fused on or other part: Q9Y6A5 (Transforming acidic coiled-coil-containing protein 3)
Briefly: NIH/3T3 FGFR3 V555M-TACC3 cell proliferation assay. The assay is classed as cell-based. The following applies: 72-hr incubation, CellTiter Glo; read-out: NIH/3T3 FGFR3 V555M-TACC3 CTG (IC50). How it is done:
NIH/3T3 FGFR3 V555M-TACC3 Cell Proliferation Assay
(§1) In day 1, 90 μL of cell suspension (NIH/3T3 cells overexpressing FGFR3 V555M-TACC3 fusion protein) (total 30,000 cells per well in growth medium (DMEM containing 1% Glutamax, 10% FBS and 1% Pen/Strep)) was seeded in a 96-well plate and then incubated overnight at 37° C. and 5% CO2. In day 2, 10 μL of growth medium containing 10-fold stock solution of testing compound was added into cell cultures (9 dose points with 4× serial dilution, starting with 10 μM, 0.1% DMSO final). After 72-hr incubation at 37° C. and 5% CO2, in day 5 a volume of 50 μL CellTiter Glo (CTG) reagent was added into cell-containing 96-well plate and the plate was incubated at room temperature for 10 minutes before RLUs (relative light unit) were measured on a microplate reader with luminescence detection module. The RLU value was normalized to survival % and concentration-response curve was plotted using Prism to calculate IC50 (M), pIC50 (−log IC50) and HillSlope value.
(In general: Cellular ATP, detected with luciferase, serves as a proxy for viable cell number.)

Assay [2] concerns the target T2, human FGFR3 V555M enzyme (cytoplasmic domain carrying V555M mutation) (Homo sapiens, UniProt P22607, V555M).
T2 construct: human FGFR3 V555M enzyme (cytoplasmic domain carrying V555M mutation, from Carna Biosciences)
The assay is described as follows: FGFR3 V555M mobility shift assay (enzymatic assay). The note with it: 30 μM ATP, 45 minutes at 30° C., Caliper EZ reader II. Format: biochemical. Here is the method: FGFR3 V555M Mobility Shift Assay (Enzymatic Assay)
In a final reaction volume of 25 μL, 0.04 ng/μL human FGFR3 V555M enzyme (cytoplasmic domain carrying V555M mutation, from Carna Biosciences) was incubated with 30 μM ATP, 1 μM FL-peptide 30 substrate and 250 nL of testing compound (1% DMSO final) in assay buffer (100 mM HEPES pH 7.4, 10 mM MgCl2, 0.003% Brij35, 1 mM DTT). After incubation for 45 minutes at 30° C. the reaction was stopped with 10 μL of 0.5M EDTA pH 8.0, and then 25 μL of reaction mixture was transferred to reading plate and measured on Caliper EZ reader II.

Assay [3] has as its target T3, human FGFR3 wild type enzyme (cytoplasmic domain) (Homo sapiens, UniProt P22607).
T3 construct: human FGFR3 wild type enzyme (cytoplasmic domain, from Carna Biosciences)
The assay is described as follows: FGFR3 wild type mobility shift assay (enzymatic assay). Format: biochemical. The note with it: 75 μM ATP, 50 minutes at 30° C., Caliper EZ reader II. How it is done: FGFR3 Wild Type Mobility Shift Assay (Enzymatic Assay)
In a final reaction volume of 25 μL, 0.04 ng/μL human FGFR3 wild type enzyme (cytoplasmic domain, from Carna Biosciences) was incubated with 75 μM ATP, 1 μM FL-peptide 30 substrate and 250 nL of testing compound (1% DMSO final) in assay buffer (100 mM HEPES pH 7.4, 10 mM MgCl2, 0.003% Brij35, 1 mM DTT). After incubation for 50 minutes at 30° C. the reaction was stopped with 10 μL of 0.5M EDTA pH 8.0, and then 25 μL of reaction mixture was transferred to reading plate and measured on Caliper EZ reader II.

Assay [4] addresses T4, NIH/3T3 cells overexpressing FGFR3 WT-TACC3 fusion protein (Homo sapiens, UniProt P22607).
T4 construct: fused on or other part: Q9Y6A5 (Transforming acidic coiled-coil-containing protein 3)
Briefly: NIH/3T3 FGFR3 WT-TACC3 cell proliferation assay. Format: cell-based. The note with it: 72-hr incubation, CellTiter Glo; read-out: NIH/3T3 FGFR3 WT-TACC3 CTG (IC50). How it is done: NIH/3T3 FGFR3 WT-TACC3 Cell Proliferation Assay
as §1, with “WT-TACC3” for “V555M-TACC3”

T4 sequence (P22607 whole entry, change not shown, the tested form may be a part): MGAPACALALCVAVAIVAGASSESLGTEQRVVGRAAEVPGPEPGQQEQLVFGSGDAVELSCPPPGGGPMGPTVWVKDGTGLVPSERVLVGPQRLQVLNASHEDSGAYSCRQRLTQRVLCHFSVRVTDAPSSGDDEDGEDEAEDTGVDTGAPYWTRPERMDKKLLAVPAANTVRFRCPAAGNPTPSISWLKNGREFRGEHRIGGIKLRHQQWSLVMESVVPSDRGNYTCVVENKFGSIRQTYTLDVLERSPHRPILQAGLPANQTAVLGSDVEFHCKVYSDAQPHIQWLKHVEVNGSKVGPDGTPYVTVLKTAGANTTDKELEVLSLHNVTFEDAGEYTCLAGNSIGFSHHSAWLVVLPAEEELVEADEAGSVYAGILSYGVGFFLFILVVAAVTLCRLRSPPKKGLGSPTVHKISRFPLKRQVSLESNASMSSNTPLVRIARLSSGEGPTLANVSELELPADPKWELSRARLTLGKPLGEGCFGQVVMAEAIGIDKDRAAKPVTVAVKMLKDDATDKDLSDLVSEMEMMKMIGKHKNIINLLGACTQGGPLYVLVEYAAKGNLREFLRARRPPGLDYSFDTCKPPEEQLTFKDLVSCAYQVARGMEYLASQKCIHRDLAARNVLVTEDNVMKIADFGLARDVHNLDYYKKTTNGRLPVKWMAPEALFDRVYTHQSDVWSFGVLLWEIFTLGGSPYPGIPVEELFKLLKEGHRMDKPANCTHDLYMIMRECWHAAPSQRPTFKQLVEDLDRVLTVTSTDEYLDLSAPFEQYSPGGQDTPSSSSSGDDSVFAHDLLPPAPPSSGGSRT
T1 sequence (P22607 whole entry V555M, the tested form may be a part): as the sequence (P22607 whole entry, change not shown, the tested form may be a part) above, with V555M counted along it
T2 sequence (P22607 397-806 V555M): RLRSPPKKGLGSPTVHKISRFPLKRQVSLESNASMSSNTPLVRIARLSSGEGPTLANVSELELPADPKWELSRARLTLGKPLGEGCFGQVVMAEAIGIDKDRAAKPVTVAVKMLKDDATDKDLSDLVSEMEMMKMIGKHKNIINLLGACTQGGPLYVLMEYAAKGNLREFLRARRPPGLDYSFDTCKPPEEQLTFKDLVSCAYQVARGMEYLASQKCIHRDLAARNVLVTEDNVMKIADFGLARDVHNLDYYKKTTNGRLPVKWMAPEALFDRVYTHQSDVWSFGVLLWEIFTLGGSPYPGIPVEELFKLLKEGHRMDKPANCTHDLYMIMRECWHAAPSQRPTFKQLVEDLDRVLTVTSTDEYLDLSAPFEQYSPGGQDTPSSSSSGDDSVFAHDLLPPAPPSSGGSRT
T3 sequence (P22607 397-806): as the sequence (P22607 397-806 V555M) above, with M159V counted along it

In the case of `COc1ccc2nc(-c3c(NC(C)c4ncccn4)c4nn(C)cc4[nH]c3=O)[nH]c2c1` (single isomer, unassigned) [Compound 1, (S*)-6-(6-Methoxy-1H-benzo[d]imidazol-2-yl)-2-methyl-7-((1-(pyrimidin-2-yl)ethyl)-amino)-2H-pyrazolo[4,3-b]pyridin-5(4H)-one], the GI50 in assay [1] is 0.00407 µM; in assay [4], 0.00472 µM. Moreover, the concentration for half-maximal inhibition (IC50) stood at 0.00027 µM in assay [2] and 0.00075 µM in assay [3].

For the compound `CCn1cc2[nH]c(=O)c(-c3nc4cc(OC)c(OC)cc4[nH]3)c(NC(C)c3cocn3)c2n1` (single isomer, unassigned) [Compound 5A, (S*)-6-(5,6-Dimethoxy-1H-benzo[d]imidazol-2-yl)-2-ethyl-7-((1-(oxazol-4-yl)ethyl)amino)-2H-pyrazolo[4,3-b]pyridin-5(4H)-one], the GI50 was 0.0504 µM in assay [1] and 0.0336 µM in assay [4]. The half-inhibitory concentration (IC50) was found to be 0.00156 µM in assay [2] and 0.00767 µM in assay [3].

Take `CC(C)C(Nc1c(-c2nc3ccc(C(N)=O)cc3[nH]2)c(=O)[nH]c2cn(C)nc12)c1ncccn1` (single isomer, unassigned) [Compound 9, (S*)-2-(2-methyl-7-((2-methyl-1-(pyrimidin-2-yl)propyl)amino)-5-oxo-4,5-dihydro-2H-pyrazolo[4,3-b]pyridin-6-yl)-1H-benzo[d]imidazole-6-carboxamide]: the results for the GI50 in assay [1] and in assay [4] were 0.2 µM and 0.202 µM, respectively. Besides, the results for the 50% inhibitory concentration (IC50) in assay [2] and in assay [3] were 0.000803 µM and 0.00433 µM, respectively.

As for `CC(C)C(Nc1c(-c2nc3ccc(C(=O)N(C)C)cc3[nH]2)c(=O)[nH]c2cn(C)nc12)c1ncccn1` (single isomer, unassigned) [Compound 10, (S*)—N,N-dimethyl-2-(2-methyl-7-((2-methyl-1-(pyrimidin-2-yl)propyl)amino)-5-oxo-4,5-dihydro-2H-pyrazolo[4,3-b]pyridin-6-yl)-1H-benzo[d]imidazole-6-carboxamide], the results for the GI50 in assay [1] and in assay [4] were 0.0319 µM and 0.0542 µM, respectively. Moreover, the IC50 amounted to 0.000673 µM in assay [2] and 0.00257 µM in assay [3].

Turning to `CC(C)C(Nc1c(-c2nc3cnc(N(C)C)cc3[nH]2)c(=O)[nH]c2cn(C)nc12)c1ncccn1` (single isomer, unassigned) [Compound 11, (S*)-6-(6-(dimethylamino)-1H-imidazo[4,5-c]pyridin-2-yl)-2-methyl-7-((2-methyl-1-(pyrimidin-2-yl)propyl)amino)-2H-pyrazolo[4,3-b]pyridin-5(4H)-one], the values for the GI50 in assay [1] and in assay [4] were 0.0507 µM and 0.0671 µM, respectively. Further, the half-inhibitory concentration (IC50) in assay [2] is 0.00105 µM; in assay [3], 0.00677 µM.

As for `COc1ccc2nc(-c3c(N[C@H](c4ncccn4)C(C)C)c4nn(C)cc4[nH]c3=O)[nH]c2c1` (single isomer, unassigned) [Compound 15, (S*)-6(5-Methoxy-1H-benzo[d]imidazol-2-yl)-2-methyl-7-((2-methyl-1-(pyrimidin-2-yl)propyl)amino)-2H-pyrazolo[4,3-b]pyridin-5(4H)-one], the GI50 turned out to be 0.0459 µM in assay [1] and 0.065 µM in assay [4]. Besides, the results for the IC50 in assay [2] and in assay [3] were 0.000753 µM and 0.00452 µM, respectively.

On to `CC(C)[C@H](Nc1c(-c2nc3cnccc3[nH]2)c(=O)[nH]c2cn(C)nc12)c1ncccn1` (single isomer, unassigned) [Compound 24, (S*)-6-(1H-imidazo[4,5-c]pyridin-2-yl)-2-methyl-7-((2-methyl-1-(pyrimidin-2-yl)propyl)amino)-2H-pyrazolo[4,3-b]pyridin-5(4H)-one], for which the results for the GI50 in assay [1] and in assay [4] were 0.117 µM and 0.166 µM, respectively. The values for the IC50 in assay [2] and in assay [3] were 0.0025 µM and 0.0135 µM, respectively.

For the compound `COCC(Nc1c(-c2nc3cc(OC)c(OC)cc3[nH]2)c(=O)[nH]c2cn(C)nc12)c1ncccn1` (single isomer, unassigned) [Compound 25, (S*)-6-(5,6-dimethoxy-1H-benzo[d]imidazol-2-yl)-7-((2-methoxy-1-(pyrimidin-2-yl)ethyl)amino)-2-methyl-2H-pyrazolo[4,3-b]pyridin-5(4H)-one], the figures for the GI50 in assay [1] and in assay [4] were 0.359 µM and 0.357 µM, respectively. The IC50 in assay [2] worked out at 0.00265 µM; in assay [3], 0.0154 µM.

Consider `COc1cc2nc(-c3c(NC(c4ncccn4)C(C)C)c4nn(C)cc4[nH]c3=O)[nH]c2cc1OC` (single isomer, unassigned) [Compound 27, (S*)-6-(5,6-dimethoxy-1H-benzo[d]imidazol-2-yl)-2-methyl-7-((2-methyl-1-(pyrimidin-2-yl)propyl)amino)-2H-pyrazolo[4,3-b]pyridin-5(4H)-one], for which the GI50 in assay [1] stood at 0.0312 µM; in assay [4], 0.0402 µM. Also, the results for the IC50 in assay [2] and in assay [3] were 0.00114 µM and 0.00482 µM, respectively.

Consider `CC[C@H](Nc1c(-c2nc3ccc(OCCOC)cc3[nH]2)c(=O)[nH]c2cn(C)nc12)c1ncccn1` (single isomer, unassigned) [Compound 48, (S*)-6(6-(2-methoxyethoxy)-1H-benzol-2-yl)-2-methyl-7-((1-(pyrimidin-2-yl)propyl)amino)-2H-pyrazolo[4,3-b]pyridin-5(4H)-one], for which the GI50 was determined as 0.112 µM in assay [1] and 0.0171 µM in assay [4]. Moreover, the half-maximal inhibitory concentration (IC50) amounted to 0.000634 µM in assay [2] and 0.00145 µM in assay [3].

Broadly, the IC50 is the concentration that inhibits the measured activity by half.
